Reference: paper PMC11578313, “Miniaturized Modular Click Chemistry‐enabled Rapid Discovery of Unique SARS‐CoV‐2 M^pro Inhibitors With Robust Potency and Drug‐like Profile” (Advanced Science, 2024)
Read-outs that look alike come from different tables or passages of the source.

Key:
[1] = in vitro; conditions: African green monkey
[2] = system: SARS‐CoV‐2; experiment: microbe, parasite or virus in culture; assay type: cell-based
[3] = molecular target: SARS‐CoV‐2 M^pro (Severe acute respiratory syndrome coronavirus 2, UniProt P0DTD1); experiment: SARS‐CoV‐2 main protease enzymatic assay (FRET inhibitor screening kit); assay type: biochemical; conditions: for inhibition at 5 µM: read-out: Inhibitionrate at @5μM
[4] = system: SARS‐CoV‐2 (hCoV‐19/Korea/KCDC06/2020, wild type); experiment: microbe, parasite or virus in culture; assay type: cell-based
[5] = in vitro; conditions: human
[6] = Severe acute respiratory syndrome coronavirus 2, Vero cells, with CP‐100356, read-out: EC50 ± SD, Vero cells, with P‐gp inhibitor
[7] = Severe acute respiratory syndrome coronavirus 2, Vero cells, without CP‐100356, read-out: EC50 ± SD, Vero cells, without P‐gp inhibitor
[8] = Severe acute respiratory syndrome coronavirus 2, Calu-3, Calu‐3 cells, with CP‐100356, read-out: EC50 ± SD, Calu‐3 cells, with P‐gp inhibitor
[9] = Severe acute respiratory syndrome coronavirus 2, Calu-3, Calu‐3 cells, without CP‐100356, read-out: EC50 ± SD, Calu‐3 cells, without P‐gp inhibitor
[10] = Calu‐3 cells, without CP‐100356, read-out: EC50 ± SD, Calu‐3 cells, without P‐gp inhibitor
[11] = Severe acute respiratory syndrome coronavirus 2, Calu-3, Calu‐3 cells, racemate, enantiomers and […] measured in the same system, read-out: EC50, anti‐SARS‐CoV‐2 activity in Calu‐3 cells (Figure 3B)

Compound | CC50 at 2 day [1] [µM] | EC50 [2, 6] [µM] | EC50 [2, 7] [µM] | IC50 [3] [µM] | inhibition of M^pro enzymatic activity, first round of screening [3] [%] | inhibition at 5 µM [3] [%] | EC50 [4, 8] [µM] | EC50 [4, 9] [µM] | CC50 at 2 day ([5]; CC50, Calu‐3 cells, MTT assay) [µM] | other results
Cc1cncc(C(=O)N2C[C@H]3CC[C@@H](C2)N3C(c2cccc(F)c2)c2cn(CS(=O)(=O)c3ccccc3)nn2)c1 (stereo partly shown) [Compound C5N42] | > 100 | 3.05 ± 0.206 | 3.68 ± 0.952 | 0.196 ± 0.009 | 101 | 96.2 | 0.133 ± 0.019 | 1.77 ± 0.055 | > 100 | 
Cc1cncc(C(=O)N2C[C@H]3CC[C@@H](C2)N3C(c2cccc(F)c2)c2cn(Cc3ccc([N+](=O)[O-])cc3)nn2)c1 (stereo partly shown) [Compound C5N6] | > 100 | 1.74 ± 0.238 | 1.83 ± 0.03 | 2.5 ± 0.013 | 88 | 68.8 | 1.05 ± 0.014 | < 1 | > 100 | EC50 [4, 10]: 0.767 ± 0.156 µM
Cn1cnc(Cn2c(=O)[nH]/c(=N\c3cc4cn(C)nc4cc3Cl)n(Cc3cc(F)c(F)cc3F)c2=O)n1 [Ensitrelvir, reference compound] | > 100 |  |  |  |  |  |  |  | > 100 | EC50 ([2]; Severe acute respiratory syndrome coronavirus 2, Vero, read-out: EC50 ± SD, Vero cells, with P‐gp inhibitor): < 0.046 µM; EC50 ([2]; Severe acute respiratory syndrome coronavirus 2, Vero, read-out: EC50 ± SD, Vero cells, without P‐gp inhibitor): 0.165 ± 0.015 µM; EC50 ([4]; Severe acute respiratory syndrome coronavirus 2, Calu-3, read-out: EC50 ± SD, Calu‐3 cells, with P‐gp inhibitor): < 0.046 µM; EC50 ([4]; Severe acute respiratory syndrome coronavirus 2, Calu-3, read-out: EC50 ± SD, Calu‐3 cells, without P‐gp inhibitor): 0.11 µM; EC50 ([4]; read-out: EC50 ± SD, Calu‐3 cells, without P‐gp inhibitor): 0.112 ± 0.011 µM
O=C(c1cccnc1)N1C[C@H]2CC[C@@H](C1)N2C(c1cccc(F)c1)c1cn(CCc2ccsc2)nn1 (stereo partly shown) [Compound C6N17] |  |  |  | 0.3 ± 0.012 | 90 | 91.7 |  |  |  | 
Cc1cncc(C(=O)N2C[C@H]3CC[C@@H](C2)N3C(c2cccc(F)c2)c2cn(C[S+]([O-])c3ccccc3)nn2)c1 (stereo partly shown) [Compound C5N41] | > 100 | 2.27 ± 0.089 | 3.67 ± 0.513 | 0.243 ± 0.011 | 100 | 92.3 | 0.097 ± 0.005 | 1.78 ± 0.001 | > 100 | 
O=C(c1cccnc1)N1CCN(C(c2cccc(F)c2)c2cn(CCN3C(=O)c4ccccc4C3=O)nn2)CC1 (stereo not shown) [Compound C4N21] | 69.8 ± 1.05 | > 10 | > 69.8 |  | 82 | 80.2 | 4.02 ± 0.566 | 74.4 ± 36.3 |  | IC50 ([3]; purified compounds, FRET assay): 1.3 ± 0.017 µM; CC50 at 2 day [5]: > 100 µM
Cc1cncc(C(=O)N2C[C@H]3CC[C@@H](C2)N3C(c2cccc(F)c2)c2cn(Cc3ccc(S(C)(=O)=O)cc3)nn2)c1 (stereo partly shown) [Compound C5N50] | > 100 | 6.57 ± 0.43 | 36.1 ± 1.38 | 2.4 ± 0.1 | 90 | 69 | 2.9 ± 0.263 | 17 ± 0.778 | > 100 | 
O=C(c1cccnc1)N1CCN(C(c2cccc(F)c2)c2cn(CCc3ccsc3)nn2)CC1 (stereo not shown) [Compound C4N17] | > 100 | 2.46 ± 0.314 | 2.74 ± 0.11 |  | 86 | 72.3 | 0.88 ± 0.109 | 1.85 ± 0.139 |  | IC50 ([3]; purified compounds, FRET assay): 1.87 ± 0.013 µM; CC50 at 2 day [5]: > 100 µM
CNC(=O)Cn1cc(C(c2cccc(F)c2)N2[C@@H]3CC[C@H]2CN(C(=O)c2cncc(C)c2)C3)nn1 (stereo partly shown) [Compound C5N57] | > 100 | > 10 | > 100 | 0.58 ± 0.005 | 96 | 85.1 | 2.33 ± 0.066 | 4.04 ± 0.986 | > 100 | 
Cc1cncc(C(=O)N2C[C@H]3CC[C@@H](C2)N3C(c2cccc(F)c2)c2cn(CCc3ccccc3)nn2)c1 (stereo partly shown) [Compound C5N16] | > 100 | 1.89 ± 0.524 | 2 ± 0.021 | 0.283 ± 0.018 | 99 | 93 | 0.08 ± 0.002 |  | > 100 | 
Cc1cncc(C(=O)N2C[C@H]3CC[C@@H](C2)N3C(c2cccc(F)c2)c2cn(Cc3cccc([N+](=O)[O-])c3)nn2)c1 (stereo partly shown) [Compound C5N5] | > 100 | 1.85 ± 0.526 | 1.79 ± 0.021 | 1.23 ± 0.001 | 93 | 79.2 | 2.56 ± 0.086 | 2.86 ± 0.395 | > 100 | 
Cc1cncc(C(=O)N2C[C@H]3CC[C@@H](C2)N3C(c2cccc(F)c2)c2cn(CC(N)=O)nn2)c1 (stereo partly shown) [Compound C5N58] | > 100 | 1.39 ± 0.171 | > 100 | 0.151 ± 0.006 | 99 | 100 | 0.337 | 4.94 ± 0.687 | > 100 | EC50 ([4]; Calu‐3 cells, with CP‐100356, read-out: EC50 ± SD, Calu‐3 cells, with P‐gp inhibitor): 0.338 ± 0.056 µM
COC(=O)CCCn1cc(C(c2cccc(F)c2)N2[C@@H]3CC[C@H]2CN(C(=O)c2cncc(C)c2)C3)nn1 (stereo partly shown) [Compound C5N39] | > 100 | 1.6 ± 0.249 | 1.87 ± 0.27 | 0.253 ± 0.01 | 96 | 87.6 | 0.253 ± 0.026 | < 1 | > 100 | EC50 [4, 10]: 0.899 ± 0.312 µM
Cc1cncc(C(=O)N2C[C@H]3CC[C@@H](C2)N3C(c2cccc(F)c2)c2cn(CCc3ccsc3)nn2)c1 (stereo partly shown) [Compound C5N17] | > 100 | 0.363 ± 0.029 | 1.57 ± 0.131 | 0.177 ± 0.016 | 101 | 98.7 | 0.028 ± 0.002 | 0.166 ± 0.011 | > 100 | EC50 [4, 11]: 0.2 ± 0.027 µM; CC50 at 2 day ([5]; CC50 (Table 3), Calu‐3 cells): > 100 µM
Cc1cncc(C(=O)N2C[C@H]3CC[C@@H](C2)N3C(c2cccc(F)c2)c2cn(Cc3cccc(F)c3)nn2)c1 (stereo partly shown) [Compound C5N64] | > 100 | 2.86 ± 0.131 | 4.2 ± 0.738 | 1.23 ± 0.1 | 93 | 79.9 | 0.479 ± 0.026 | 2.94 ± 0.124 | > 100 | 
O=C(c1cccnc1)N1C[C@H]2CC[C@@H](C1)N2C(c1cccc(F)c1)c1cn(CCN2C(=O)c3ccccc3C2=O)nn1 (stereo partly shown) [Compound C6N21] |  |  |  | 0.2 ± 0.016 | 89 | 95.1 |  |  |  | 
Cc1cncc(C(=O)N2C[C@H]3CC[C@@H](C2)N3[C@@H](c2cccc(F)c2)c2cn(CCc3ccsc3)nn2)c1 [Compound C5N17A] |  |  |  | 3.18 |  | 53.2 |  |  |  | EC50 [4, 11]: 5.95 µM; CC50 at 2 day ([5]; CC50, column 9, after the Calu-3 EC50 columns): > 100 µM
Cc1cncc(C(=O)N2C[C@H]3CC[C@@H](C2)N3C(c2cccc(F)c2)c2cn(CCN3C(=O)c4ccccc4C3=O)nn2)c1 (stereo partly shown) [Compound C5N21] | > 100 | 1.38 ± 0.119 | 16.2 ± 0.41 | 0.15 ± 0.004 | 100 | 99.5 | 0.259 ± 0.043 | < 1 | > 100 | EC50 [4, 10]: 0.591 ± 0.011 µM
